Patent publication US6689773B2, “Uracil substituted phenyl sulfamoyl carboxamides” (BASF Aktiengesellschaft, priority 2000, dated 2004)

Columns and labels:
Assay type in all cases: in vivo
[1] = test system: AMBEL, Ragweed, Common, Ambrosia artemiisifolia, L.; assay: Postemergence herbicidal evaluation (Example 147); details: rating scale 0-9, two to three weeks after treatment
Procedure, shortened: (§1)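 ~2-wk seedlings; spray 40 psi; 0.016–0.032 kg/ha a.i. in acetone/water 80/20 + 1.0% methylated seed oil; greenhouse; rated 0–9 visually at 2–3 wk; multiple tests averaged.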

[2] = test system: GLXMA, Soybean, Glycine max, (L.) Merr.; assay: Postemergence herbicidal evaluation (Example 147); details: rating scale 0-9, two to three weeks after treatment
Procedure, shortened: as §1

[3] = test system: ABUTH, Velvetleaf, Abutilon theophrasti, Medic.; assay: Postemergence herbicidal evaluation (Example 147); details: rating scale 0-9, two to three weeks after treatment
Procedure, shortened: as §1

[4] = test system: DIGSA, Crabgrass, (Hairy) L, Digitaria sanguinalis, (L)Scop; assay: Postemergence herbicidal evaluation (Example 147); details: rating scale 0-9, two to three weeks after treatment
Procedure, shortened: as §1

[5] = test system: CHEAL, Lambsquarters, Chenopodium album, L. Common; assay: Postemergence herbicidal evaluation (Example 147); details: rating scale 0-9, two to three weeks after treatment
Procedure, shortened: as §1

[6] = test system: XANST, Cocklebur, Xanthium strumariam; assay: Postemergence herbicidal evaluation (Example 147); details: rating scale 0-9, two to three weeks after treatment
Procedure, shortened: as §1

[7] = test system: IPOHE, Morningglory, Ivyleaf, Ipomoea hederacea, (L)Jacq.; assay: Postemergence herbicidal evaluation (Example 147); details: rating scale 0-9, two to three weeks after treatment
Procedure, shortened: as §1

[8] = test system: ECHCG, Barnyardgrass, Echinochloa crusgalli, (L.)Beau; assay: Postemergence herbicidal evaluation (Example 147); details: rating scale 0-9, two to three weeks after treatment
Procedure, shortened: as §1

[9] = test system: ZEAMX, Field corn, Zea mays L.; assay: Postemergence herbicidal evaluation (Example 147); details: rating scale 0-9, two to three weeks after treatment
Procedure, shortened: as §1

[10] = test system: ALOMY, Blackgrass, Alopecurus myosuroides; assay: Postemergence herbicidal evaluation (Example 147); details: rating scale 0-9, two to three weeks after treatment
Procedure, shortened: as §1

[11] = test system: SETVI, Green foxtail, Setaria viridis, (L.)Beau; assay: Postemergence herbicidal evaluation (Example 147); details: rating scale 0-9, two to three weeks after treatment
Procedure, shortened: as §1

[12] = test system: TRZAW, Winter wheat, Tritium Aestivum, L. (Winter); assay: Postemergence herbicidal evaluation (Example 147); details: rating scale 0-9, two to three weeks after treatment
Procedure, shortened: as §1

[13] = test system: AMBEL, Ragweed, Common, Ambrosia artemiisifolia, L.; assay: Preemergence herbicidal evaluation (Example 148); details: rating scale 0-9, two to four weeks after treatment
Procedure, shortened: (§2)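 Herbicidal effect is a visual score comparing treated plants with a control for stand, vigor, size, malformation and chlorosis. Treatment was a preemergence spray (~0.125–0.250 kg/ha, aqueous acetone); assessment came 2–4 weeks later.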

[14] = test system: GLXMA, Soybean, Glycine max, (L.) Merr.; assay: Preemergence herbicidal evaluation (Example 148); details: rating scale 0-9, two to four weeks after treatment
Procedure, shortened: as §2

[15] = test system: ABUTH, Velvetleaf, Abutilon theophrasti, Medic.; assay: Preemergence herbicidal evaluation (Example 148); details: rating scale 0-9, two to four weeks after treatment
Procedure, shortened: as §2

[16] = test system: DIGSA, Crabgrass, (Hairy) L, Digitaria sanguinalis, (L)Scop; assay: Preemergence herbicidal evaluation (Example 148); details: rating scale 0-9, two to four weeks after treatment
Procedure, shortened: as §2

[17] = test system: CHEAL, Lambsquarters, Chenopodium album, L. Common; assay: Preemergence herbicidal evaluation (Example 148); details: rating scale 0-9, two to four weeks after treatment
Procedure, shortened: as §2

[18] = test system: XANST, Cocklebur, Xanthium strumariam; assay: Preemergence herbicidal evaluation (Example 148); details: rating scale 0-9, two to four weeks after treatment
Procedure, shortened: as §2

[19] = test system: IPOHE, Morningglory, Ivyleaf, Ipomoea hederacea, (L)Jacq.; assay: Preemergence herbicidal evaluation (Example 148); details: rating scale 0-9, two to four weeks after treatment
Procedure, shortened: as §2

[20] = test system: ECHCG, Barnyardgrass, Echinochloa crusgalli, (L.)Beau; assay: Preemergence herbicidal evaluation (Example 148); details: rating scale 0-9, two to four weeks after treatment
Procedure, shortened: as §2

[21] = test system: ZEAMX, Field corn, Zea mays L.; assay: Preemergence herbicidal evaluation (Example 148); details: rating scale 0-9, two to four weeks after treatment
Procedure, shortened: as §2

[22] = test system: ALOMY, Blackgrass, Alopecurus myosuroides; assay: Preemergence herbicidal evaluation (Example 148); details: rating scale 0-9, two to four weeks after treatment
Procedure, shortened: as §2

[23] = test system: SETVI, Green foxtail, Setaria viridis, (L.)Beau; assay: Preemergence herbicidal evaluation (Example 148); details: rating scale 0-9, two to four weeks after treatment
Procedure, shortened: as §2

[24] = test system: TRZAW, Winter wheat, Tritium Aestivum, L. (Winter); assay: Preemergence herbicidal evaluation (Example 148); details: rating scale 0-9, two to four weeks after treatment
Procedure, shortened: as §2

## CCN(CC)S(=O)(=O)NC(=O)c1cc(-n2c(=O)cc(C(F)(F)F)n(C)c2=O)c(F)cc1Cl [Example 68]
[1]; rate 0.016 kg/ha
  Postemergence herbicidal rating AMBEL: 9.0
[1]; rate 0.032 kg/ha
  Postemergence herbicidal rating AMBEL: 9.0
[2]; rate 0.016 kg/ha
  Postemergence herbicidal rating GLXMA: 8.5
[2]; rate 0.032 kg/ha
  Postemergence herbicidal rating GLXMA: 8.5
[3]; rate 0.016 kg/ha
  Postemergence herbicidal rating ABUTH: 9.0
[3]; rate 0.032 kg/ha
  Postemergence herbicidal rating ABUTH: 9.0
[4]; rate 0.016 kg/ha
  Postemergence herbicidal rating DIGSA: 6.0
[4]; rate 0.032 kg/ha
  Postemergence herbicidal rating DIGSA: 6.0
[5]; rate 0.016 kg/ha
  Postemergence herbicidal rating CHEAL: 8.0
[5]; rate 0.032 kg/ha
  Postemergence herbicidal rating CHEAL: 8.0
[6]; rate 0.016 kg/ha
  Postemergence herbicidal rating XANST: 9.0
[6]; rate 0.032 kg/ha
  Postemergence herbicidal rating XANST: 9.0
[7]; rate 0.016 kg/ha
  Postemergence herbicidal rating IPOHE: 9.0
[7]; rate 0.032 kg/ha
  Postemergence herbicidal rating IPOHE: 9.0
[8]; rate 0.016 kg/ha
  Postemergence herbicidal rating ECHCG: 8.0
[8]; rate 0.032 kg/ha
  Postemergence herbicidal rating ECHCG: 8.0
[9]; rate 0.016 kg/ha
  Postemergence herbicidal rating ZEAMX: 7.0
[9]; rate 0.032 kg/ha
  Postemergence herbicidal rating ZEAMX: 7.5
[10]; rate 0.016 kg/ha
  Postemergence herbicidal rating ALMOY: 1.0
[10]; rate 0.032 kg/ha
  Postemergence herbicidal rating ALMOY: 1.0
[11]; rate 0.016 kg/ha
  Postemergence herbicidal rating SETVI: 7.0
[11]; rate 0.032 kg/ha
  Postemergence herbicidal rating SETVI: 9.0
[12]; rate 0.016 kg/ha
  Postemergence herbicidal rating TRZAW: 5.0
[12]; rate 0.032 kg/ha
  Postemergence herbicidal rating TRZAW: 5.5
[13]; rate 0.125 kg/ha
  Preemergence herbicidal rating AMBEL: 9.0
[13]; rate 0.25 kg/ha
  Preemergence herbicidal rating AMBEL: 9.0
[14]; rate 0.125 kg/ha
  Preemergence herbicidal rating GLXMA: 7.0
[14]; rate 0.25 kg/ha
  Preemergence herbicidal rating GLXMA: 8.0
[15]; rate 0.125 kg/ha
  Preemergence herbicidal rating ABUTH: 9.0
[15]; rate 0.25 kg/ha
  Preemergence herbicidal rating ABUTH: 9.0
[16]; rate 0.125 kg/ha
  Preemergence herbicidal rating DIGSA: 3.0
[16]; rate 0.25 kg/ha
  Preemergence herbicidal rating DIGSA: 4.0
[17]; rate 0.125 kg/ha
  Preemergence herbicidal rating CHEAL: 8.0
[17]; rate 0.25 kg/ha
  Preemergence herbicidal rating CHEAL: 8.0
[18]; rate 0.125 kg/ha
  Preemergence herbicidal rating XANST: 9.0
[18]; rate 0.25 kg/ha
  Preemergence herbicidal rating XANST: 9.0
[19]; rate 0.125 kg/ha
  Preemergence herbicidal rating IPOHE: 9.0
[19]; rate 0.25 kg/ha
  Preemergence herbicidal rating IPOHE: 9.0
[20]; rate 0.125 kg/ha
  Preemergence herbicidal rating ECHCG: 3.0
[20]; rate 0.25 kg/ha
  Preemergence herbicidal rating ECHCG: 4.0
[21]; rate 0.125 kg/ha
  Preemergence herbicidal rating ZEAMX: 1.0
[21]; rate 0.25 kg/ha
  Preemergence herbicidal rating ZEAMX: 2.0
[22]; rate 0.125 kg/ha
  Preemergence herbicidal rating ALMOY: 0.0
[22]; rate 0.25 kg/ha
  Preemergence herbicidal rating ALMOY: 0.0
[23]; rate 0.125 kg/ha
  Preemergence herbicidal rating SETVI: 4.0
[23]; rate 0.25 kg/ha
  Preemergence herbicidal rating SETVI: 8.0
[24]; rate 0.125 kg/ha
  Preemergence herbicidal rating TRZAW: 0.0
[24]; rate 0.25 kg/ha
  Preemergence herbicidal rating TRZAW: 0.0
